Assay results from a melting point compilation (Tetko et al.).

melting point [°C]	SMILES
146 to 147	NC(Cc1ccc(F)cc1Cl)=NO
258 to 260	NNC(=O)C=Cc1ccc(C=CC(=O)NN)cc1
149	Cc1ccc(-c2onc(C(=O)c3ccc(Cl)cc3)c2S(=O)(=O)c2ccccc2)cc1
214	O=C1CSc2cc(Cl)ccc2N1
194	O=c1cc(NC2CCCCC2)c2ccccc2o1
221	N#CC1=C(N)Oc2c(c(C(F)(F)F)nn2-c2ccccc2)C1c1ccc(Cl)cc1 (stereo not drawn)
137 to 139	COC(OC)c1ccc(C#N)c(S)n1
183 to 185	N#Cc1c(N)oc(-c2ccco2)c1-c1ccco1
134 to 136	O=C(O)c1cccc(N2CCCC2)n1
110	N#Cc1c(NC(=O)c2ccccc2)sc2c1CCCC2
73	CC(=O)OC(CCC(=O)c1ccccc1)c1ccccc1 (stereo not drawn)
111 to 115	Cc1ccccc1NC(=O)C(C)(C)C
123	O=Cc1ccc(O)c(F)c1
239 to 243	NNC(=O)C(=O)NN
85	Fc1cc(F)c(F)c(-c2c(F)c(F)cc(F)c2F)c1F
62	CCCCCCCCCCCCCCCCCCSSCCCCCCCCCCCCCCCCCC
250	CSc1nn2c(C(F)(F)F)cc(C(F)(F)F)nc2c1C(N)=O
113	CC12C=CC(CC1)C2(C)C (stereo not drawn)
6	CC(C)(C)C=O
172	O=Nc1c(Cl)cccc1Cl
147 to 151	NN=C(C(=O)c1ccccc1)c1ccccc1
108	CCCCCCCCCC(N)=O
186	COC(=O)C1=C(C)NC(C)=C(C(=O)OC)C1c1ccco1

melting point [°C]	SMILES
-30.1	CCCCCCCCN(C)CCCCCCCC
207 to 209	CC(=O)NCC(=O)O
84 to 86	O=CC1=C(Cl)c2cc(F)ccc2OC1
88	Oc1ccccc1C(O)c1ccccc1 (stereo not drawn)
187 to 191	COc1cc2c(cc1O)C=NCC2
150	CC1=C(c2ccccc2)C(=O)N(C(C)(C)c2cc(Cl)cc(Cl)c2)CO1
257	Cc1c(C)c(C)c2c(c1C)CC1(OC2=O)C(=O)c2ccccc2C1=O
187	O=C(C(C(=O)N1CCOCC1)c1ccccc1)N1CCOCC1
66	CC(C)(C)OC(=O)C1CC(=O)CN1C(=O)OC(C)(C)C (stereo not drawn)
125 to 126	O=C(Cl)c1csc2ccc(Br)cc12
257	CC(C)(C)NC(=O)C1CCC2CC34CCC(CC=C3C=C(O)C=O)C4CCC21C (stereo not drawn)
89 to 91	Cc1nc(-c2cc(C(=O)Cl)no2)cs1
156 to 158	COc1ccc(Cl)c(OC)c1C(N)=O
141	O/N=C(/CC(NO)c1ccccc1)c1ccccc1 (stereo not drawn)
145 to 146	CCOC(=O)c1[nH]c(C)c(C=O)c1C
145 to 147	CCC1CC(OC(=O)c2ccc([N+](=O)[O-])cc2)CC(C)(C)N1O (stereo not drawn)
106	CC(=O)C1(C)CCC2C3CCC4=CC(=O)CCC4=C3CCC21C (stereo not drawn)
158	O=c1cc(-c2ccccc2)oc2cccc(O)c12
86	CSc1ccc(O)cc1
90	COc1c(Br)c(C)c(Br)c(Br)c1OC
155 to 159	Cc1c([N+](=O)[O-])cc(C(=O)O)cc1[N+](=O)[O-]
105	NC(=O)N1CCCCC1
128	CON=C(C(=O)NC1C(=O)N2C(C(=O)OCOC(=O)C(C)(C)C)=C(C=Cc3scnc3C)CSC12)c1csc(N)n1 (stereo not drawn)

melting point [°C]	SMILES
139	BrC1C2CC3CC(C2)CC1C3 (stereo not drawn)
50.5 to 51.5	CCOC(=O)c1cccc(Oc2cncc(C)n2)c1
194 to 196	O=[N+]([O-])c1cc([N+](=O)[O-])c(C(Br)=Cc2ccccc2)cc1/C=C\c1ccccc1
64	Cc1cccc(CC(=O)O)c1
153	Clc1c(Cl)c(Cl)c2c(c1Cl)OC(c1ccccc1)(c1ccccc1)O2
150	Cc1cccc(C)c1NC(=O)C1CCCCN1C (stereo not drawn)
70	CCCOc1ccccc1OCC(O)CO (stereo not drawn)
193	O=C(O)Cn1c(=O)sc2cccc(Cl)c21
72.5	CCN(CC)C(=O)COC(=O)c1ccccc1
90 to 93	O=C(O)Cc1coc2ccccc12
180	Cc1nnc(-c2ccccc2)c2noc(C)c12
216	Nc1cc2ccccc2cc1C(=O)O
175	O=C(C=NO)Nc1ccccc1
44	O=Cc1cc(I)ccc1F
195	CCOC(=O)N1COCc2c1ccc1cc3ccc4c(c3nc21)COCN4C(=O)OCC
156 to 158	CC(C)(C)c1ccc(-c2nnc(S)n2Cc2ccco2)cc1
-38	Fc1nc(F)nc(F)n1
174	CC(C)[C@]12C/C(=N\NC(N)=O)[C@H](C)[C@H]1C2
158 to 161	Nc1cc(-c2ccc(Cl)cc2)nc(N)n1
6.5	CC(=O)NCCS
93	Cc1nc(-c2cccc(C(=O)Cl)c2)no1
135	CC(=O)OCC1OC(OC2OC=CC3C(OC(=O)c4ccc(OC(C)=O)cc4)C4OC4(COC(C)=O)C23)C(OC(C)=O)C(OC(C)=O)C1OC(C)=O (stereo not drawn)
188 to 190	Cc1nc(C(F)(F)F)c(C(=O)O)cc1-c1nc(-c2ccccc2)cs1

melting point [°C]	SMILES
210 to 211	N=C(N)N/N=C(\C(=S)Nc1ccc(Br)cc1)c1ccccc1
96	O=C(O)C(O)c1cccc(F)c1 (stereo not drawn)
46 to 50	CC(C)C1COC2(C)C=CC(=O)N12 (stereo not drawn)
285	CC[C@H](C)[C@@H](N)C(=O)O
140 to 141	O=C(Cl)c1ccc(-c2ccccn2)s1
232	CCOC(=O)NC(=O)Nn1c(S)nnc1C(F)(F)F
175	Cc1cc([N+](=O)[O-])cc(Cl)c1N
289 to 290	O=CNC1CC=CCC(NC=O)CC=CC1 (stereo not drawn)
22 to 24	Cc1cc(C)c(N=C=S)cc1C
104	CNC(=O)c1cccnc1
173	C[Si]1(C)Oc2ccc3ccccc3c2-c2c(ccc3ccccc23)O[Si](C)(C)O1
244	CC1=NC(=Cc2cccc3ccccc23)C(=O)O1
188 to 192	O=C(Oc1ccccc1)c1c2ccccc2nc2ccccc12
135	C[Si](C)(O)c1ccc([Si](C)(C)O)cc1
132 to 135	CCN(CC)c1cc(Cl)c2nonc2c1[N+](=O)[O-]
222	COc1ccc(-c2csc(/C(C#N)=C/c3ccccc3Cl)n2)cc1
88	COc1cc2c(cc1C)C(=O)C2
199 to 201	CC1(c2ccccc2)NC(=O)NC1=O (stereo not drawn)
> 200	COc1ccc(C=CC(=O)c2cccc(C(=O)C=Cc3ccc(OC)c(O)c3)c2)cc1O
185 to 187	CC1(C)CC(=O)c2cc(-c3ccccc3)n(-c3ccc(Cl)cc3)c2C1
174 to 177	NC(c1cccc2ccccc12)C(N)c1cccc2ccccc12 (stereo not drawn)
104 to 106	c1ccc(-c2cnc(-c3cccc4ccccc34)o2)cc1
263	COc1ccc(-c2cc(=O)c3c(O)cc(O)cc3o2)cc1

melting point [°C]	SMILES
35 to 38	COC1C(C2COC3(CCCCC3)O2)OC2OC3(CCCCC3)OC21 (stereo not drawn)
111	c1ccc2c(c1)CCc1ccccc1C1(OCCO1)C21OCCO1
111 to 112	NCc1ccc2c(Br)cccc2c1
108 to 110	O=C(OCC1CC1)c1cnc(Cl)nc1C(F)(F)F
149 to 152	O=[N+]([O-])c1c(Cl)ccc2nsnc12
194 to 195	CSC(=Nc1nccs1)SC
293	CN[C@@H](Cc1ccc(O)cc1)C(=O)O
157	O=C(O)c1ccccc1O
180	S=c1sc2nc3ccccc3nc2s1
99	O=[N+]([O-])c1cccc(CS(=O)(=O)Cl)c1
103	Cc1ccc(O)c(C(O)c2ccccc2)c1 (stereo not drawn)
91.5	CCCCNC(=O)c1ccc(Cl)cc1O
203 to 206	Cn1c(N)nc2ccccc21
94	CC(=O)CCc1oc2ccc(I)cc2c1-c1ccc(C)o1
93 to 94	Cc1cc(C(=O)CCl)c(C)n1-c1ccccc1
148 to 149	Cc1ccc(S(=O)(=O)NC(=S)Nc2ccccc2)cc1
196 to 199	Nc1c(I)cc(I)c(C(=O)O)c1I
190	CC1OC(n2cc(F)c(=O)[nH]c2=O)C(O)C1O (stereo not drawn)
137	O=C(Cc1ccccc1)C(c1ccccc1)N1CCCCC1 (stereo not drawn)
61	N#Cc1c(Cl)cccc1Oc1ccccc1

SMILES	melting point [°C]
Cc1cc([N+](=O)[O-])ccc1O	96
ClCCc1ccccc1	-60
CC(C)(c1ccc(OC(=O)Cl)cc1)c1ccc(OC(=O)Cl)cc1	90 to 95
O=C(CCl)OCCOC(=O)CCl	45.5
OC(O)C(Cl)(Cl)Cl	57
COc1cc(CC(C)N)c(OC)cc1C (stereo not drawn)	60.8
N#CCCCCCC#N	-31.4
CC1CC2(C)C(CCC3C4CCC(O)C4(C)CCC32)CC1=O (stereo not drawn)	151
CC(CO)c1c(O)c(O)c2c(c1O)C(=O)C(O)=C1C(C)(C)CCCC12C (stereo not drawn)	237
CC(NC(C)(C)C)C(=O)c1cccc(Cl)c1 (stereo not drawn)	234
c1ccc(C2CCNCC2)cc1	60.5
Cc1cc(Cl)c([N+](=O)[O-])cc1[N+](=O)[O-]	90
NNC(N)=S	183
CCc1ccc(C(=O)NN(C(=O)c2cc(C)cc(C)c2)C(C)(C)C)cc1	191
CC(C)CCCC(C)C1CCC2C3CC=C4CC(OC(=O)Cl)CCC4(C)C3CCC12C (stereo not drawn)	118
NC1=NC(=O)C(c2ccccc2)O1 (stereo not drawn)	256
